The test system of this test is Bacillus subtilis ssp. shriramensis (MTCC-5674). Briefly: Antibiotic sensitivity test (antibiotic discs on T3 agar). For Result: key: RES - Resistant; INT - Intermediate; SEN - Sensitive. It is filed as cell-based. To be noted: antibiotic disc on T3 agar, 30° C. for 24 hours; for Result: judged against Standards. Here is the method: Different antibiotic discs were placed on the surface of the T3 agar plates labelled with the respective antibiotic. The plates were incubated at 30° C. for 24 hours.

Positions of bridges follow the written chain, without caps; N, C: chain ends. Non-standard residues stand in square brackets, D forms with d. Residues, ends and D or L forms follow the SMILES beside them. *: point of attachment. Ileψ(thiazoline)Cys = CC[C@H](C)[C@H](N)C1=N[C@H](C(=O)*)CS1; dOrn = NCCC[C@@H](N)C(=O)O

`NCC[C@H](O)C(=O)N[C@@H]1C[C@H](N)[C@@H](O[C@H]2O[C@H](CN)[C@@H](O)[C@H](O)[C@H]2O)[C@H](O)[C@H]1O[C@H]1O[C@H](CO)[C@@H](O)[C@H](N)[C@H]1O` [Amikacin]: the Zone was 15 mm; the “antibiotic sensitivity of the bacterium, in words” value (“antibiotic sensitivity” for short) was “intermediate resistance”; the Result result was “INT”.

On to `CC1(C)S[C@@H]2[C@H](NC(=O)[C@H](N)c3ccc(O)cc3)C(=O)N2[C@H]1C(=O)O` [Amoxicillin], for which the Zone was determined as 0 mm; the “antibiotic sensitivity” value is “resistant”; the Result result is “RES”.

In the case of `CC1(C)S[C@@H]2[C@H](NC(=O)[C@H](N)c3ccccc3)C(=O)N2[C@H]1C(=O)O` [Ampicillin], the Zone came to 0 mm; the “antibiotic sensitivity” value was “resistant”; the Result entry was “RES”.

Regarding `CC[C@H]1OC(=O)[C@H](C)[C@@H](O[C@H]2C[C@@](C)(OC)[C@@H](O)[C@H](C)O2)[C@H](C)[C@@H](O[C@@H]2O[C@H](C)C[C@H](N(C)C)[C@H]2O)[C@](C)(O)C[C@@H](C)CN(C)[C@H](C)[C@@H](O)[C@]1(C)O` [Azithromycin], the Zone came out at 10 mm; the “antibiotic sensitivity” value is “resistant”; the Result entry is on record as “RES”.

Take `CC[C@H](C)[C@H](N)C1=N[C@H](C(=O)N[C@@H](CC(C)C)C(=O)N[C@H](CCC(=O)O)C(=O)N[C@H](C(=O)N[C@H]2CCCCNC(=O)[C@H](CC(N)=O)NC(=O)[C@@H](CC(=O)O)NC(=O)[C@H](Cc3cnc[nH]3)NC(=O)[C@@H](Cc3ccccc3)NC(=O)[C@H]([C@@H](C)CC)NC(=O)[C@@H](CCCN)NC2=O)[C@@H](C)CC)CS1` [Bacitracin] ({Ileψ(thiazoline)Cys}-L[dE]IK[dOrn]I[dF]H[dD]N; lactam 4-C): the Zone came to 21 mm; the “antibiotic sensitivity” value is reported as “sensitive”; the Result result is recorded as “SEN”.

As to `CC1(C)S[C@@H]2[C@H](NC(=O)C(C(=O)O)c3ccccc3)C(=O)N2[C@H]1C(=O)O` (stereo partly drawn) [Carbenicillin], the Zone is 15 mm; the “antibiotic sensitivity” value was “resistant”; the Result entry is given as “RES”.

As to `CO/N=C(\C(=O)N[C@@H]1C(=O)N2C(C(=O)O)=C(CSc3nc(=O)c(=O)[nH]n3C)CS[C@H]12)c1csc(N)n1` [Ceftriaxone], the Zone stood at 28 mm; the “antibiotic sensitivity” value is reported as “sensitive”; the Result result was “SEN”.

Turning to `CC(=O)OCC1=C(C(=O)O)N2C(=O)[C@@H](NC(=O)Cc3cccs3)[C@H]2SC1` [Cephalothin], the Zone is 40 mm; the “antibiotic sensitivity” value was “sensitive”; the Result entry is recorded as “SEN”.

Take `O=C(N[C@H](CO)[C@H](O)c1ccc([N+](=O)[O-])cc1)C(Cl)Cl` [Chloramphenicol]: the Zone stood at 25 mm; the “antibiotic sensitivity” value was “sensitive”; the Result result is “SEN”.

The compound `CCC[C@@H]1C[C@@H](C(=O)N[C@@H]([C@H]2O[C@H](SC)[C@H](O)[C@@H](O)[C@H]2O)[C@H](C)Cl)N(C)C1` [Clindamycin] yielded a Zone of 10 mm.

Take `CCN1CCN(c2cc3c(cc2F)c(=O)c(C(=O)O)cn3C2CC2)CC1` [Enrofloxacin]: the Zone amounted to 41 mm; the “antibiotic sensitivity” value is on record as “resistant”; the Result result is reported as “RES”.

For the compound `CC[C@H]1OC(=O)[C@H](C)[C@@H](O[C@H]2C[C@@](C)(OC)[C@@H](O)[C@H](C)O2)[C@H](C)[C@@H](O[C@@H]2O[C@H](C)C[C@H](N(C)C)[C@H]2O)[C@](C)(O)C[C@@H](C)C(=O)[C@H](C)[C@@H](O)[C@]1(C)O` [Erythromycin], the Zone is 16 mm; the “antibiotic sensitivity” value is given as “intermediate resistance”; the Result entry is “INT”.

Take `NC[C@H]1O[C@H](O[C@H]2[C@H](O)[C@@H](O[C@H]3O[C@H](CO)[C@@H](O)[C@H](N)[C@H]3O)[C@H](N)C[C@@H]2N)[C@H](O)[C@@H](O)[C@@H]1O` [Kanamycin]: the Zone was 13 mm and the Result result is listed as “RES”.

On to `CCC[C@@H]1C[C@@H](C(=O)N[C@@H]([C@H]2O[C@H](SC)[C@H](O)[C@@H](O)[C@H]2O)[C@@H](C)O)N(C)C1` [Lincomycin], for which the Zone came out at 12 mm; the “antibiotic sensitivity” value is on record as “resistant”; the Result result was “RES”.

On to `CO[C@@H]1[C@@H](OC(N)=O)[C@@H](O)[C@H](Oc2ccc3c(O)c(NC(=O)c4ccc(O)c(CC=C(C)C)c4)c(=O)oc3c2C)OC1(C)C` [Novobiocin], for which the Zone was 24 mm; the “antibiotic sensitivity” value is on record as “sensitive”; the Result entry is given as “SEN”.

Consider `Cc1onc(-c2ccccc2)c1C(=O)N[C@@H]1C(=O)N2[C@@H]1SC(C)(C)[C@@H]2C(=O)O` [Oxacillin], for which the Zone worked out at 11 mm; the “antibiotic sensitivity” value is “intermediate resistance”; the Result result is listed as “INT”.

On to `[H]/N=C(/N)N[C@H]1[C@H](O)[C@@H](O)[C@H](O[C@@H]2O[C@@H](C)[C@](O)(C=O)[C@H]2O[C@@H]2O[C@@H](CO)[C@H](O)[C@@H](O)[C@@H]2NC)[C@@H](N/C(N)=N\[H])[C@@H]1O` [Streptomycin], for which the Zone is 12 mm; the “antibiotic sensitivity” value is “intermediate resistance”; the Result entry is “INT”.

With `Cc1noc(NS(=O)(=O)c2ccc(N)cc2)c1C` [Sulfisoxazole], the Zone turned out to be 33 mm; the “antibiotic sensitivity” value is recorded as “sensitive”; the Result result is listed as “SEN”.

Consider `NC[C@H]1O[C@H](O[C@H]2[C@H](O)[C@@H](O[C@H]3O[C@H](CO)[C@@H](O)[C@H](N)[C@H]3O)[C@H](N)C[C@@H]2N)[C@H](N)C[C@@H]1O` [Tobramycin], for which the Zone is 15 mm; the “antibiotic sensitivity” value is on record as “sensitive”; the Result result is “SEN”.

For `CN[C@H](CC(C)C)C(=O)N[C@H]1C(=O)N[C@@H](CC(N)=O)C(=O)N[C@H]2C(=O)N[C@H]3C(=O)N[C@H](C(=O)N[C@H](C(=O)O)c4cc(O)cc(O)c4-c4cc3ccc4O)[C@H](O)c3ccc(c(Cl)c3)Oc3cc2cc(c3O[C@@H]2O[C@H](CO)[C@@H](O)[C@H](O)[C@H]2O[C@H]2C[C@](C)(N)[C@H](O)[C@H](C)O2)Oc2ccc(cc2Cl)[C@H]1O` [Vancomycin], the Zone worked out at 20 mm; the “antibiotic sensitivity” value was “sensitive”; the Result result was “SEN”.

Regarding Gentamicin, the Zone was 20 mm; the “antibiotic sensitivity” value is on record as “sensitive”; the Result result is given as “SEN”.

With Neomycin, the Zone came to 12 mm; the “antibiotic sensitivity” value was “resistant”; the Result entry is given as “RES”.

The values are drawn from patent US10327448B2, “Bacterium of Bacillus genus and uses thereof” (priority 2014, dated 2019).
